Key:
[1] = test system: P. aeruginosa 6077 (O11-cytotoxic); test: P. aeruginosa corneal infection (keratitis) model; assay type: in vivo, mice; details: versus negative control-treated animals, 24 hours after infection
Procedure: FIG. 8 (A-G): Anti-Psl monoclonal antibodies Cam-003 and WapR-004 are active in a P. aeruginosa keratitis model and thermal injury model. Mice were treated with a control IgG1 antibody or Cam-003 at 45 mg/kg (A, B) or 15 mg/kg (C, D) or PBS or a control IgG1 antibody or Cam-003 at 45 mg/kg or WapR-004 at 45 mg/kg or 15 mg/kg or 5 mg/kg (F, G) 24 hours prior to infection with 6077 (O11-cytotoxic—2×10^6 CFU). Immediately before infection, three 1 mm scratches were made on the left cornea of each animal followed by topical application of P. aeruginosa in a 5 μl inoculum. 24 hours after infection, the corneal pathology scores were calculated followed by removal of the eye for determination of viable CFU. Differences in pathology scores and viable CFU were determined by the Mann-Whitney U-test. (A) P=0.0001, (B) P<0.0001, (C) P=0.0003, (D) P=0.0015. (F) and (G) Cam-003 (45 mg/kg) vs. WapR-004 (45 mg/kg): P=0.018; Cam-003 (45 mg/kg) vs. WapR-004 (15 mg/kg): P=0.0025; WapR-004 (45 mg/kg) vs. WapR-004 (15 mg/kg): P=0.1331; WapR-004 (5 mg/kg) vs. Ctrl: P<0.0001. Results are representative of five independent experiments. (E) Survival analysis from Cam-003 and R347 treated CF-1 mice in a P. aeruginosa thermal injury model after 6077 infection (2×10^5 CFU) (log-rank: R347 vs. Cam-003 15 mg/kg, P=0.0094; R347 vs. Cam-003 5 mg/kg, P=0.0017). […]

[2] = test system: P. aeruginosa PAO1 and isogenic mutants; test: Indirect ELISA on plates coated with P. aeruginosa strains; assay type: binding, Pseudomonas aeruginosa
From the text: In addition, duplication of VH CDR3 loop sequences in the libraries (a measure of clonal enrichment during selection), was also found to be higher in the patient library, reaching 88-92%, compared to 15-25% in the naïve library at round 3 (FIG. 1D). Individual scFv phage from affinity selections were next screened by ELISA for reactivity to P. aeruginosa heterologous serotype strains (FIG. 1E). ELISA plates (Nunc; MAXISORP™) were coated with P. aeruginosa strains from overnight cultures as described (DiGiandomenico, A., et al., Infect Immun 72, 7012-7021 (2004)). Diluted antibodies were added to blocked plates for 1 hour, washed, and treated with HRP-conjugated anti-human secondary antibodies for 1 hour followed by development and analysis as described (Ulbrandt, N. D., et al., J Virol 80, 7799-7806 (2006)). The dominant species of phage obtained from whole cell selections with both libraries yielded serotype specific reactivity (data not shown).
This example describes identification of the target of anti-P. aeruginosa antibodies derived from phenotypic screening. Target analysis was performed to test whether the serotype independent antibodies targeted protein or carbohydrate antigens. […] Isogenic mutants were constructed in genes responsible for O-antigen, alginate, and LPS core biosynthesis; wbpL (O-antigen-deficient); wbpL/algD (O-antigen and alginate deficient); rmlC (O-antigen-deficient and truncated outer core); and galU (O-antigen-deficient and truncated inner core). P. aeruginosa mutants were constructed based on the allele replacement strategy described by Schweizer (Schweizer, H. P., Mol Microbiol 6, 1195-1204 (1992); Schweizer, H. D., Biotechniques 15, 831-834 (1993)). Vectors were mobilized from E. coli strain 517.1 into P. aeruginosa strain PAO1; recombinants were isolated as described (Hoang, T. T., et al., Gene 212, 77-86 (1998)). Gene deletion was confirmed by PCR. P. aeruginosa mutants were complemented with pUCP30T-based constructs harboring wild type genes. […] The rmlC and galU genes were recently shown to be required for biosynthesis of the Psl exopolysaccharide, a repeating pentasaccharide polymer consisting of D-mannose, L-rhamnose, and D-glucose. Cam-003 binding to an isogenic pslA knockout PAO1ΔpslA, was tested, as pslA is required for Psl biosynthesis (Byrd, M. S., et al., Mol Microbiol 73, 622-638 (2009)). Binding of Cam-003 to PAO1ΔpslA was abolished when tested by ELISA (FIG. 3B) and FACS (FIG. 3C), while the LPS molecule in this mutant was unaffected (FIG. 3D). Binding of Cam-003 was restored in a PAO1ΔwbpL/algD/pslA triple mutant complemented with pslA (FIG. 3E) as was the ability of Cam-003 to mediate opsonic killing to complemented PAO1ΔpslA in contrast to the mutant (FIGS. 3F and 3G). Binding of Cam-003 antibody to a Pcl exopolysaccharide mutant was also unaffected further confirming Psl as our antibody target (FIG. 3E). Binding assays confirmed that the remaining antibodies also bound Psl (FIGS. 3H and 3I).

[3] = test system: P. aeruginosa strains PAO1, 33356, 6294, 6077, 6206; test: Acute pneumonia model, organ burden; assay type: in vivo, BALB/c mice
Procedure: Antibodies or PBS were administered 24 hours before infection in each model. P. aeruginosa acute pneumonia, keratitis, and thermal injury infection models were performed as described (DiGiandomenico, A., et al., Proc Natl Acad Sci USA 104, 4624-4629 (2007)), with modifications. In the acute pneumonia model, BALB/c mice (The Jackson Laboratory) were infected with P. aeruginosa strains suspended in a 0.05 ml inoculum. In the thermal injury model, CF-1 mice (Charles River) received a 10% total body surface area burn with a metal brand heated to 92° C. for 10 seconds. Animals were infected subcutaneously with P. aeruginosa strain 6077 at the indicated dose. For organ burden experiments, acute pneumonia was induced in mice followed by harvesting of lungs, spleens, and kidneys 24 hours post-infection for determination of CFU.

## Cam-003: human IgG1 anti-Psl monoclonal antibody, VH SEQ ID NO: 1 and VL SEQ ID NO: 2
[1]
  bacterial counts in total eye homogenates: reduced bacterial counts
[1]; FIGS. 8A-D, F-G
  corneal pathology: significantly less pathology
[2]; LPS purified from PAO1
  reactivity to purified LPS: not observed
[2]; PAO1ΔpslA, FIG. 3B
  ELISA binding: abolished
[2]; PAO1ΔwbpL/algD/pslA triple mutant complemented with pslA, FIG. 3E
  ELISA binding: restored
[2]; Pcl exopolysaccharide mutant, FIG. 3E
  ELISA binding: unaffected
[2]; rmlC and galU mutants, FIGS. 3A, 3J
  ELISA binding: abolished
[2]; wbpL or wbpL/algD double mutant, FIGS. 3A, 3J
  ELISA binding: unaffected
[3]; PAO1, 6294 and 6077, FIGS. 7A, 7C, 7D
  dissemination to the spleen and kidneys: marked effect in reducing dissemination to the spleen and kidneys
[3]; PAO1, 33356, 6294, 6077, 24 hours post-infection, FIGS. 7A-D
  lung burden (viable CFU): effective at reducing P. aeruginosa lung burden against all four strains tested
[3]; cytotoxic strain 6077, FIG. 7D
  lung burden, dose dependence: the low dose was as effective as the higher dose

From patent US10370436B2, “Anti-pseudomonas Psl binding molecules and uses thereof” (priority 2011, dated 2019)
